Literature values in paper PMC7062412 (Drug Design, Development and Therapy, 2020).

What was measured:
ET-1 = settings: overall animals, isolated organs, cells and subcells

half-life in the body: 30 to 60 min
SMILES: O=C(O)/C=C/c1ccc(O)c(O)c1 [Caffeic Acid, caffeic acid]
antagonistic biological effect on ET-1 (ET-1): had an antagonistic biological effect on ET-1
